Reference: patent publication US20210267978A1, “NANOPARTICLE FORMULATIONS OF IKE AND METHODS OF USE THEREOF” (The Trustees of Columbia University in the City of New York, priority 2018, published 2021)

How the values were obtained:
[1] = test system: SUDHL6 cells; test: Immunofluorescence of MDA (mAb 1F83) on cells; format: cell-based; details: 10 μM IKE for 6 hours vs DMSO
Description: SUDHL-6 cells were treated with IKE. The cells were harvested by centrifugation and washed with PBS once. The cells were resuspended in PBS, fixed by adding equal volume of 4% paraformaldehyde (PFA), and incubated at room temperature for 15 min. The cells were washed with PBS/0.1% Tween 20 (PBST) twice, resuspended in 10% goat serum (ThermoFisher 50197Z) for 1 h. The cells were incubated with mouse mAb 1F83, which specifically recognizes malondialdehyde (MDA)-lysine adduct 4-methyl-1,4-dihydropyridine-3,5-dicarbaldehyde (MDHDC) (Yamada et al. 2001, Hyvarinen et al. 2014) (1:100 dilution) overnight at 4° C. The cells were washed with PBS three times by centrifugation. The cells were incubated with goat anti-mouse IgG H&L (Alexa Fluor 647) (Abcam ab150115) (1:1000) at room temperature for 1 h. The cells were washed with PBST twice by centrifugation, then resuspended in PBS in 24-well plate with poly-lysine-(Sigma Aldrich P4832)-coated cover slips and centrifuged at 1,000×g for 10 min. […] When applicable, line-scan analysis was performed on representative confocal microscopy images using Zeiss LSM software to qualitatively visualize fluorescence overlap. The intensity above threshold of the fluorescent signal of the bound antibodies was analyzed using NIH ImageJ software. Data were expressed as fold change compared with the vehicle.

[2] = test system: SUDHL6 xenograft tumor tissue; test: Immunofluorescence on frozen tumor sections from efficacy study (COX-2, MDA, 8-OHdG); format: in vivo, NCG mice
Description: NCG mice, 6-weeks old, were injected with 10 million SUDHLO-6 cells subcutaneously. The mice were treated after the tumor size reached 100 mm^3. Mice were separated randomly into treatment groups and dosed with 23 mg/kg IKE, 40 mg/kg IKE, 23 mg/kg IKE PEG-PLGA nanoparticles (equal to 700 mg/kg PEG-PLGA), vehicle 1 (based on volume), and vehicle 2 (700 mg/kg PEG-PLGA) once daily by IP for 14 days. Tumor volume was measured daily with electronic caliper and calculated using the formula: 0.5×length×width^2. 3 h after the final dosage, mice were euthanized with CO2 and tumor tissue was dissected, weighed, divided into 4-6 segments, frozen, and stored at −80° C. Tumor volume change was analyzed in Prism using one-way ANOVA. Tumor tissues were analyzed as described in the RT-qPCR, immunofluorescence, TBARS, and lipidomics sections below.
Tumor tissues were fixed in 4% paraformaldehyde (PFA) for 24 h at 4° C. followed by washing with PBS three times. The tissues were perfused in 30% sucrose for 24 h at 4° C. for cryo-protection. The samples were embedded in OCT cryostat sectioning medium, and then moved directly into a cryostat. After equilibration of temperature, frozen tumor tissues were cut into 5 μm thick sections. Tissue sections were mounted on to poly-L-lysine coated slides by placing the cold sections onto warm slides. Slides were stored at −80° C. until staining. For staining, slides were warmed to room temperature followed by washing with PBS twice. A hydrophobic barrier pen was used to draw a circle on each slide. The slides were permeabilized with PBS/0.4% Triton X-100 twice before non-specific-binding blocking by incubating the sections with 10% goat serum (ThermoFisher 50197Z) for 30 minutes at room temperature. The sections were separately incubated with mouse anti-MDA mAb 1F83 (1:1000 dilution), anti-cyclooxygenase 2 (COX 2, AKA PTGS2) antibody (Abcam, ab15191, 1:200 dilution), or anti-8-OH-dG (DNA/RNA damage) antibody (Abcam, ab62623, 1:200 dilution) overnight at 4° C. in humidified chambers. Sections were washed with PBST for twice before incubating with goat anti-mouse IgG H&L (Alexa Fluor 647) (Abcam, ab150115, 1:1000 dilution) or goat anti-rabbit IgG H&L highly cross-absorbed secondary antibody (Alexa Fluor488, Thermo Fisher Scientific, A-11034, 1:1000) at room temperature for 1 h. Slides were then washed twice with PBST. ProLong Diamond antifade mountant with DAPI (ThermoFisher P36962) was added onto slides, which were then covered with the coverslips, sealed by clear fingernail polish and observed under confocal microscopy. All images were captured on a Zeiss LSM 800 confocal microscope at Plan-Apochromat 63×/1.40 Oil DIC objective with constant laser intensity for all analyzed samples. The intensity above threshold of the fluorescent signal of the bound antibodies was analyzed using NIH ImageJ software. Data were expressed as fold change comparing with the vehicle.

`CC(C)Oc1ccc(C(=O)Cn2ccnc2)cc1-n1c(CN2CCN(C(=O)COc3ccc(Cl)cc3)CC2)nc2ccccc2c1=O` [IKE, Imidazole ketone erastin] was tested, and the “MDA immunofluorescence intensity increase” value [1] was 3.4 fold, the “increase in 8-OHdG intensity (immunofluorescence)” value ([2]; 23 mg/kg daily for 14 days) was 1.8 fold and the “increase in COX-2 intensity (immunofluorescence)” value ([2]; 23 mg/kg daily for 14 days) was 2.0 fold. The “increase in MDA intensity (immunofluorescence)” value ([2]; 23 mg/kg daily for 14 days) was 1.8 fold, the “increase in 8-OHdG intensity (immunofluorescence)” value ([2]; 40 mg/kg daily for 14 days) was 2.2 fold and the “increase in COX-2 intensity (immunofluorescence)” value ([2]; 40 mg/kg daily for 14 days) was 2.8 fold. For the same compound, the “increase in MDA intensity (immunofluorescence)” value ([2]; 40 mg/kg daily for 14 days) was 2.0 fold.
